Assay results published in US20090206245A1, “Mass analysis method using fine metal particles” (Shionogi CO., Ltd, priority 2004, published 2009).

Biological target: β1-4 galactosyltransferase (GalT)
Experiment: Inhibiting activity of UDP against GalT reaction on a sugar chain (GlcNAc)-fine gold particle complex, tracked by MALDI-TOF MS
Type: biochemical
Settings: GlcNAc-Au 50 μM, UDP-Gal 400 μM, four mU GalT, HEPES buffer (10 mM MnCl2, 0.15 M NaCl), 25° C., 60 minutes; from plot of FIG. 8
Procedure: 100 μL of MHEPES buffer solution (10 mM MnCl2, 0.15 M NaCl) of the sugar chain-fine gold particles (GlcNAc-Au:50 μM) produced in accordance with Example 4 and UDP-Gal (400 μM), was prepared. Four mU of β1-4 galactosyltransferase (GalT) was added to the buffer solution, and the sugar chain elongation reaction was tracked at 25° C. by using MALDI-TOF Mass spectroscopy. The reaction solution was not subjected to centrifugal filtration, but to MALDI-TOF mass spectrometry using 2,5-dihydroxybenzoic acid (DHB) as a matrix (FIG. 6). […] FIG. 7 indicates a plot representing temporal variation in extent of the sugar-chain elongation reaction, which was derived from the spectrum shown in FIG. 6.
100 μL of MHEPES buffer solution (10 mM MnCl2, 0.15 M NaCl) of the sugar chain-fine gold particles (GlcNAc-Au: 50 μM) produced in accordance with Example 4 and UDP-Gal (400 μM), was prepared. Four mU of β1-4 galactosyltransferase (GalT) and UDP (prepared at nine concentration levels in the range of 0-50 μM) was then added to the buffer solution, and the solution was subjected to reaction at 25° C. for 60 minutes.

`O=c1ccn([C@@H]2O[C@H](COP(=O)(O)OP(=O)(O)O)[C@@H](O)[C@H]2O)c(=O)[nH]1` [UDP] showed an IC50 of 300 µM.
